System: MAP-induced hyperlocomotion in male ICR mice
Experiment: Inhibition of methamphetamine (MAP)-induced hyperlocomotion
Assay type: in vivo
Settings: compound 10 mg/kg p.o. 60 min before MAP 2 mg/kg s.c., FIG. 1
Description: Male ICR mice were supplied by CLEA Japan, Inc (Japan). After arrival to the vivarium, animals were allowed a minimum of 1 week for acclimation. They were housed under a 12:12-h light/dark cycle in a temperature- and humidity-controlled laboratory and allowed food and water ad libitum.
A test compound was suspended in 0.5% methylcellulose in distilled water and orally administered (p.o.). Methamphetamine (Dainippon Sumitomo Pharma Co., Ltd.) was dissolved in saline and subcutaneously administered (s.c.). All drugs were dosed in a volume of 10 mL/kg body weight for mice.
The widely used animal models of psychosis have been the measurement of the extent of hyperlocomotion induced by psychostimulants (e.g., amphetamine, cocaine, methamphetamine, MK-801 and phencyclidine) in rodents (Psychopharmacology 1999, vol. 145: 237-250). 4 compounds (A, B, C, D) were tested for its ability to antagonize MAP-induced hyperlocomotion in mice. Male ICR mice were habituated in the locomotor chambers with infrared sensors (BrainScienceldea Co., Ltd. Japan) to the experiment. After the habituation, animals were treated with either vehicle or the compounds (10 mg/kg, p.o.), and MAP (2 mg/kg, s.c.) was administrated 60 min later. Locomotion activities were measured, and accumulated counts (120 min after administration of MAP) were calculated in each treatment group. All data were represented as means plus the standard errors of the means (n=3-9) and analyzed using Student's t-test with significance set at **P<0.01 and ***P<0.001 or Welch's t-test with significance set at ^$P<0.05, ^$$P<0.01 and ^$$$P<0.001.

Compound	inhibition of MAP-induced hyperlocomotion (accumulated locomotion counts 0-120 min)
O=S1(=O)CCN2C=CC=C(c3ccc(OC4CCCCC4)cc3)C2=N1 [D, 9-[4-(cyclohexyloxy)phenyl]-3,4-dihydropyrido[2,1-c][1,2,4]thiadiazine 2,2-dioxide]	significant inhibition
CC1=CN2CCS(=O)(=O)N=C2C(c2ccc(OC3CCCCC3)cc2)=N1 [C, 9-[4-(cyclohexyloxy)phenyl]-7-methyl-3,4-dihydropyrazino[2,1-c][1,2,4]thiadiazine 2,2-dioxide]	significant inhibition
Cc1ccc(Oc2ccc(C3=CC=CN4CCS(=O)(=O)N=C34)cc2)cc1 [B, 9-[4-(4-methylphenoxy)phenyl]-3,4-dihydropyrido[2,1-c][1,2,4]thiadiazine 2,2-dioxide]	significant inhibition
O=S1(=O)CCN2C=CC=C(c3ccc(Oc4ccccc4)cc3)C2=N1 [A, 9-(4-phenoxyphenyl)-3,4-dihydropyrido[2,1-c][1,2,4]thiadiazine 2,2-dioxide]	significant inhibition

Reference: US9499568B2, “Heterocyclic compound and use thereof” (Takeda Pharmaceutical Company Limited, priority 2010, dated 2016)
